Results reported in patent US12171748B2, “Nitroimidazole formulations” (priority 2018, dated 2024).
Counter-ions that a name gives are not always drawn.

Legend:
[1] = cited from earlier work; for solubility in hot/boiling ethanol: hot or boiling ethanol; for solubility in hot/boiling water: hot or boiling water
[2] = cited from earlier work
[3] = system: 6 strains of C. difficile; assay: Checkerboard assay for antibiotic combinations; type: cell-based, Clostridium difficile; design: unit not given here
Description: The three combinations below were tested vs. 6 strains of C. difficile following the experimental protocols and synergy calculations set out in Magi et al. 2015. • Berberine+Metronidazole • Berberine+Vancomycin • Metronidazole+Vancomycin
In accordance with Magi et al. 2015, synergy is calculated using the equation below: ΣFIC=FICA+FICB=MICA (combine)/MICA (alone)+MICB (combine)/MICB (alone)
When ΣFIC≤0.5, synergy is observed.

[4] = system: ribotype 027 C. difficile strain (M7404); assay: In vivo mouse trial; design: species or system C57BL6/J mice
Description: Groups of five, six week old, male, C57BL6/J mice were pre-treated with an antibiotic cocktail in the drinking water containing kanamycin (0.4 mg/ml), gentamicin (0.035 mg/ml), colistin (850 U/ml), metronidazole (0.215 mg/ml), vancomycin (0.045 mg/ml) and cefaclor (0.3 mg/ml) for 7 days, followed by three days of cefaclor alone. These antibiotics disrupt the resident microbiota and induce susceptibility to infection with Clostridium difficile. On the day of infection, antibiotic pre-treatment was ceased and mice were switched to plain drinking water prior to infection with a ribotype 027 C. difficile strain (M7404) at a dose of 10^5 spores/mouse by oral gavage. Eight hours post-infection, mice were orally administered 100 ul of the respective treatments, followed by the immediate addition of the treatment to the drinking water. The treatments were replenished fresh daily. The mice were monitored twice daily for signs of infection and faecal samples were analysed by microbiological techniques for the presence of C. difficile spores. Mice were humanely killed when they reached ethical endpoints, which include 10% acute weight loss (in the first 24 hours) or 15% chronic weight loss.

[5] = system: six strains of C. difficile; assay: MIC/MBC of compounds against six strains of C. difficile; type: cell-based, Clostridium difficile; details: vs. the six strains
Description: Eleven natural compounds, metronidazole and a positive control, vancomycin, were tested against six strains of C. difficile as shown in Table 4. […] The eleven natural compounds, or combinations, tested were: • 1. […] Matrine • 6. […] Andrographolide • 8. […] The natural compounds, metronidazole and vancomycin were obtained from commercial sources, e.g. Sigma-Aldrich.

[6] = single agent 50 mg/kg, oral and drinking water, infected mice

## C=C1CC[C@@H]2[C@](C)(CO)[C@H](O)CC[C@@]2(C)[C@@H]1C/C=C1/C(=O)OC[C@H]1O [Andrographolide]
[1]; ethanol at ambient temperature
  solubility in ethanol at ambient temperature: poorly soluble
[1]
  solubility in hot/boiling ethanol: soluble
  solubility in water: almost insoluble

## O=C1C=CC2(CCC23C=CC(=O)O3)O1 (stereo not shown) [Anemonin]
[1]; cold water
  solubility in cold water: slightly soluble
[1]
  solubility in hot/boiling ethanol: soluble
  solubility in hot/boiling water: soluble

## COC(=O)C1=CCCN(C)C1 [Arecoline]
[1]
  solubility in ethanol: produces a solution
  solubility in water: produces a solution

## O=C(O)[C@H]1O[C@@H](Oc2cc3oc(-c4ccccc4)cc(=O)c3c(O)c2O)[C@H](O)[C@@H](O)[C@@H]1O [Baicalin]
[1]; N,N-dimethylformamide
  solubility in N,N-dimethylformamide: diffluent
[1]; alkaline solution, such as sodium bicarbonate, sodium carbonate, sodium hydroxide
  solubility in alkaline solution: soluble
[1]
  solubility in water: almost insoluble
[2]
  stability in alkaline environment: unstable

## COc1ccc2cc3[n+](cc2c1OC)CCc1cc2c(cc1-3)OCO2 [Berb]
[3]; Replicate 1
  MICBerb (alone): 1024
[3]; Replicate 1, pair 128, 0.5
  MICBerb (combine): 128
[3]; Replicate 2
  MICBerb (alone): 512
[3]; Replicate 2, pair 128, 0.5
  MICBerb (combine): 128
[4]; either 25 mg/kg or 50 mg/kg
  survival time of mice: did not increase the survival time
[4]; single agent 25 mg/kg
  survival D0: 100%
  survival D1: 0%
  survival D1½: 0%
  survival D1¾: 0%
  survival D2: 0%
  survival D3: 0%
  survival D4: 0%
[4]; single agent 50 mg/kg
  survival D1: 20%
  survival D1½: 0%
  survival D1¾: 0%
  survival D2: 0%
  survival D3: 0%
  survival D4: 0%
[4]; [6]
  survival D0: 100%

## Cc1ncc([N+](=O)[O-])n1CCO [Metronidazole, 2-methyl-5-nitroimidazole-1-ethanol]
[3]; Replicate 1
  MICMet (alone): 1
[3]; Replicate 1, pair 128, 0.5
  MICMet (combine): 0.5
[3]; Replicate 1, pair 256, 0.25
  MICMet (combine): 0.25
[3]; Replicate 1, pair 256, 0.5
  MICMet (combine): 0.5
[3]; Replicate 2
  MICMet (alone): 2
[3]; Replicate 2, pair 128, 0.5
  MICMet (combine): 0.5
[3]; Replicate 2, pair 256, 0.25
  MICMet (combine): 0.25
[3]; Replicate 2, pair 256, 0.5
  MICMet (combine): 0.5
[4]; Metronidazole (50 mg/kg) group
  mice survived to the end of the experiment (day 4): 1/5
[4]; either 25 mg/kg or 50 mg/kg
  survival compared to untreated mice: no statistical difference in survival
[4]; single agent 25 mg/kg
  survival D0: 100%
  survival D1: 60%
  survival D1½: 20%
  survival D1¾: 20%
  survival D2: 0%
  survival D3: 0%
  survival D4: 0%
[4]; single agent 50 mg/kg
  survival D1: 100%
  survival D1½: 100%
  survival D1¾: 100%
  survival D2: 20%
  survival D3: 20%
  survival D4: 20%
[4]; [6]
  survival D0: 100%

## COc1cc2c(cc1OC)-c1cc3ccc(OC)c(OC)c3c[n+]1CC2 [Palmatine chloride]
[1]
  solubility in ethanol: slightly soluble
  solubility in hot/boiling water: soluble
  solubility in water: sparingly soluble

## CN[C@H](CC(C)C)C(=O)N[C@H]1C(=O)N[C@@H](CC(N)=O)C(=O)N[C@H]2C(=O)N[C@H]3C(=O)N[C@H](C(=O)N[C@H](C(=O)O)c4cc(O)cc(O)c4-c4cc3ccc4O)[C@H](O)c3ccc(c(Cl)c3)Oc3cc2cc(c3O[C@@H]2O[C@H](CO)[C@@H](O)[C@H](O)[C@H]2O[C@H]2C[C@](C)(N)[C@H](O)[C@H](C)O2)Oc2ccc(cc2Cl)[C@H]1O [Vancomycin]
[5]
  MBC range: ≥ 1 µg/mL

## COC(=O)C1=CCCN(C)C1 [arecoline hydrobromide]
[1]
  solubility in ethanol: diffluent
  solubility in water: diffluent
